In patent US10390536B2, “Methods, compounds and compositions for repelling insects and/or arachnids” (National Center for Scientific Research “Demokritos”, priority 2013, dated 2019):
Like-named read-outs stand apart in the source and are kept apart here.

Columns and labels:
[1] = test system: Anopheles gambiae (Giles) ss strain 16CSS female mosquitoes; assay: warm body repellence assay (mosquito landings); assay type: in vivo; conditions: for repellent activity in the warm body assay (in words): candidate compounds, initially 1.0-5.0 μg/cm^2 (about 5-31.5 nmole/cm^2); for median repellency (%) at 20 nmol/cm2: read-out: Median Repellency (%)
Protocol: To test the behavior of female mosquitoes to an essential oil containing OBP binding components, a previously described repellence assay [Kröber et al. (2010). An In Vitro Assay for Testing Mosquito Repellents Employing a Warm Body and Carbon Dioxide as a Behavioral Activator. Journal of the American Mosquito Control Association 26(4) 381-386] was conducted that measures the number of mosquito landings on a warm surface onto which an essential oil containing at least one candidate compound was applied.
To conduct a repellency assay, a selected essential oil or ethanol negative control was applied to a warm body at a dose of about 3.8 μg/cm^2 and allowed to dry for 40 seconds in order to allow evaporation of the solvent before introduction into the test cage with mosquitoes. As positive control for repellence, DEET dissolved in ethanol was applied to the warm body at the same dose. The treated warm body in conjunction with a pulse of carbon dioxide was introduced into the test cage containing fifty Anopheles gambiae (Giles) ss strain 16CSS female mosquitoes that were 4-11 days old and the number of mosquito landings on the warm body occurring within a 2-minute period was counted. Each candidate compound was tested in five different cages (i.e., 250 female mosquitoes) in a randomized design, and the ethanol control and up to four candidate compounds were tested in each cage. Raw data on numbers of landings by mosquitoes were analyzed using a linear mixed model accounting for treatment, experimental day, the individual cage, the number of females per cage and the level of the carbon dioxide pulse in ppm using R (R Development Core Team, 2010) and the packages LME4 (Bates and Maechler, Ime4: Linear mixed-effects models using {S4} classes.{R} package version 0.999375-32, 2009) and NLME (Pinheiro et al, nlme: Linear and Nonlinear Mixed Effects Models, 2010; the R Development Core Team, R: A Language and Environment for Statistical Computing, 2010). Repellent values were calculated from counted landings on treatments versus the overall landings on pooled controls.
To test the behavior of female mosquitoes to a candidate compound identified in Example 5, behavioral assays were made using the identified compounds. The repellent assay was performed as described in Example 3, except that candidate compounds were dissolved in ethanol and tested initially at doses between 1.0 and 5.0 μg/cm^2 (about 5-31.5 nmole/cm^2) and, whenever necessary, at lower and/or higher doses as well. Besides the compounds identified in Example 5, compounds related to these were also tested including ethyl-cinnamate and butyl-cinnamate (Table 4).
To test the behavior of female mosquitoes to various combinations of candidate compounds identified in Example 6, repellence assays were made as in Example 3. These repellent assays were made to compare the effectiveness of the strongest repellent compounds identified in Example 6, including, without limitation, carvacrol, ethyl cinnamate, butyl cinnamate, and cumin alcohol with that of DEET.
The doses tested were 2, 4, 6 10 and 20 nmol/cm^2 for the single compounds. The binary 50:50 mixtures were tested at 2, 6, 10 and 20 nmol/cm^2, with each compound making up half the amount tested, so that, for example, the 2 nmol/cm^2 concentration in column A+B represents 1 nmol/cm^2 of A and 1 nmol/cm^2 of B in a binary mixture. DEET was also tested at 25 nmol (top response) and carvacrol was tested at the additional dose of 2.5 nmol (second from left within its column). As an indication, DEET at 20 nmol/cm^2=3.8 μg/cm^2. Mosquitoes were activated using a puff of CO2 from a gas tank upon introduction of the warm body into the test cage containing 50±5 A. gambiae females and mosquito landings were counted for 2 minutes. Each treatment (dose) was tested using five test cages, i.e. on a total of 250 female A. gambiae. […]

[2] = test system: female A. gambiae antennae; assay: GC-coupled electroantennogram (GC-EAG) recording; design: species or system Anopheles gambiae; conditions: compounds eluting from GC of essential oils
Text: Electrophysiological recordings from whole mosquito antenna: Coupling EAG recordings from an A. gambiae antenna to the effluent of a high-resolution gas chromatographic (GC) column permitted the determination of the elution profiles of biologically active components of essential oils showing repellence. Recordings were made from to 4-9 day-old female mosquitoes. The head was excised at the occipital opening and placed on the reference glass electrode containing Hayes mosquito Ringer [Hayes (1953). Determination of a physiological saline for Aedes aegypti (L.). J Econ Entomol 46: 624-627] mounted in a humidified air-stream (90-98% RH; Guerin and Visser (1980). Electroantennogram Responses of the Carrot Fly, Psila rosae, to Volatile Plant Components. Physiological Entomology 5(2): 111-119] and its antenna exposed to compounds eluting from the GC column (Biessamann et al. (2010). The Anopheles gambiae odorant binding protein 1 (AgamOBP1) mediates indole recognition in the antennae of female mosquitoes. PLoS One 5(3): e9471]. The EAG response was recorded via a glass electrode filled with Kaissling sensillum lymph Ringer [Kaissling (1995). Single unit and electroantennogram recordings in insect olfactory organs. In Experimental Cell Biology of Taste and Olfaction. Current Techniques and Protocols, Spielman AlaB, J. G. (ed), 361-386. Boca Raton, Fla.: CRC Press] brought into contact with the terminal antennal segment whose tip was cut off. Only antennae showing an EAG response at least double the noise level to a 1 ml puff of air over 1 μg geranylacetone in a 5 ml stimulus syringe were used for recording EAG responses to the essential oils.
To conduct a GC-EAG analysis, about 2 μg of an essential oil was injected in 1-3 μL of dichloromethane (DCM) onto an apolar capillary column (95% dimethyl polysiloxan with 5% diphenyl polysiloxan, 15 m long, 0.25 mm i.d., 0.10 μm film thickness; BGB Analytik, Switzerland) installed in a 5300 Carlo Erba Instruments chromatograph. Hydrogen was used as carrier gas with the oven held at 40° C. for 3 minutes then heated up 25° C./min to 230° C. and held at the final temperature for 15 min. The column effluent was split (50:50) between the flame ionization detector (FID) of the chromatograph and the mosquito antennal preparation. The EAG signal was fed into an AC/DC amplifier (×100) via a high impedance preamplifier (×10), recorded on the hard disk of a PC via a 16-bit analogue-digital IDAC4 interface (Syntech, Netherlands) and monitored simultaneously with an oscilloscope (Tektronix 5103, USA). Kovats retention indices (KIs) were calculated for the EAG-active compounds present in the extracts and fractions. FIG. 1 illustrates the results obtained using the GC-EAG analysis. […]

[3] = test system: sand fly Lutzomyia longipalpis; assay: warm body repellence assay with sand flies; assay type: in vivo; conditions: for Median of landings: 2 minutes, control 48
Protocol: To test the effects of repellent compounds or compositions disclosed herein on other blood-feeding arthropods, a warm body repellence assay (Krober et. al. (2010). An In Vitro Assay for Testing Mosquito Repellents Employing a Warm Body and Carbon Dioxide as a Behavioral Activator. Journal of the American Mosquito Control Association 26(4): 381-386] was conducted using the sand fly Lutzomyia longipalpis (Diptera: Psychodidae), the principal vector of Leishmania (or leismaniasis) in the Americas.
[…] Fifty L. longipalpis sandflies (male:female ratio 1:1) of 3-7 days old were tested during the scotophase under conditions described for A. gambiae in Example 6. The test cages were lined with filter paper. Reduction in the number of landings by L. longipalpis sand fly females on a warm body treated with different test products compared to the control with solvent (ethanol p.a.) alone was used to evaluate repellence. Tests were conducted in complete darkness using IR LEDs to illuminate the warm body. Landings counted during 2 minutes were normalized by experimental day, cage, and number of females by a mixed linear model before testing for differences.

[4] = Anopheles gambiae, 2 min, 20 nmole per cm^2

| Molecule | repellent activity in the warm body assay (in words) [1] | EAG response of antenna [2] | other results |
| --- | --- | --- | --- |
| C=C(C)C1CC=C(C)C(=O)C1 (single isomer, unassigned; (+)) [(+) carvone, carvone] | only weak or no repellent activity at all |  |  |
| C=C(C)[C@H]1CC=C(C)CC1 [(+) limonene, limonene] | only weak or no repellent activity at all |  |  |
| C=C(C)[C@@H]1CC=C(C)C(=O)C1 [(−) carvone, carvone] | only weak or no repellent activity at all |  |  |
| CC(C)c1ccc(C=O)cc1 [cumin aldehyde] | only weak or no repellent activity at all | capable of triggering EAG responses | median repellency (%) at 20 nmol/cm2 ([1]; Anopheles gambiae, 2 min): 13.5% |
| CC(C)c1ccc(C(=O)O)cc1 [cuminic acid] | activity comparable to DEET | capable of triggering EAG responses | median repellency (%) at 20 nmol/cm2 [1, 4]: 74.2%; Median of landings ([3]; 20 nmol/cm^2): 16; Median of landings ([3]; 200 nmol/cm^2): 13; repellence of sand flies from the warm body (in words) ([3]; 20 and 200 nmol/cm^2): as effective as DEET at 20 nmol/cm^2 |
| C=CC(C)(O)CCC=C(C)C (centres unmarked) [linalool] | properties suggesting attractant activity | capable of triggering EAG responses |  |
| COC(=O)C=Cc1ccccc1 [methyl-trans-cinnamate, methyl 3-phenylprop-2-enoate] | only weak or no repellent activity at all | capable of triggering EAG responses | median repellency (%) at 20 nmol/cm2 [1, 4]: 14% |
| Cc1ccc(C(C)C)cc1 [p-cymene] | properties suggesting attractant activity | capable of triggering EAG responses |  |
| CC1=C(C=O)C(C)(C)CC=C1 [safranal] | only weak or no repellent activity at all | capable of triggering EAG responses |  |
| Cc1ccc(C(C)C)c(O)c1 [thymol, 2-Isopropyl-5-methylphenol] | activity comparable to DEET |  | median repellency (%) at 31.5 nmol/cm2 ([1]; Anopheles gambiae, 2 min, 31.5 nmole per cm^2): 89.7% |
| CC1=CCC2CC1C2(C)C (stereo not drawn) [α-pinene] | only weak or no repellent activity at all | capable of triggering EAG responses |  |
| C=C1CC/C=C(\C)CC[C@@H]2[C@@H]1CC2(C)C [β-caryophyllene] | only weak or no repellent activity at all | capable of triggering EAG responses |  |
| C=C1CCC2CC1C2(C)C (stereo not drawn) [β-pinene] | only weak or no repellent activity at all | capable of triggering EAG responses |  |
| CC1=CCC(C(C)C)=CC1 [γ-terpinene] | only weak or no repellent activity at all |  |  |
| CC(C)=C1CCC(C)(O)CC1 (centres unmarked) [γ-terpineol] |  | capable of triggering EAG responses |  |
| limonene [(−) limonene] | only weak or no repellent activity at all |  |  |
